Measurements published in paper PMC10826971, “Evaluating protein cross-linking as a therapeutic strategy to stabilize SOD1 variants in a mouse model of familial ALS” (PLOS Biology, 2024).
Values after ≈ are worked out from the molar mass of the structure shown. Values joined by “and” are separate entries in the source; they are usually repeats but may differ in a detail not shown here. Identical values can stand only once. “Also recorded” adds a separate entry of the source.

What was measured:
[1] = biological target: T1, SOD1 variants (Homo sapiens, UniProt P00441, H47R); assay: Plate-based and gel-based SOD1 enzymatic activity assays (results in words); format: biochemical; conditions: plate-based and gel-based assays
T1 construct: made in house; host or cells: EGy118ΔSOD1 yeast, YEp351 expression vector
Description: (§1) Enzymatic activity of SOD1 variants were assessed using a gel-based assay with riboflavin and nitroblue tetrazolium (NBT) as previously described. […] The samples were mixed with native sample buffer (Bio-Rad) in a 1:1 ratio and were loaded into each well to a 12% polyacrylamide gel (Bio-Rad). The gel was stained in dark using 50 mM potassium phosphate (pH 7.8), 0.13 mg/mL of NBT, and 0.1 mg/mL of riboflavin for 45 min. The gel was exposed to light for with 1 μL/mL of N,N,N^′,N^′-tetramethylethylenediamine (TEMED) for 2 min. SOD1 activity can be seen as colorless bands as the SOD1 scavenges the superoxide that inhibits insoluble blue color formazan formation.
(§2) All samples were prepared as described in gel-based enzymatic activity assay section and were (10 μL) mixed with 160 μL of solution A (6,000 units/mL catalase, 10 mM hypoxanthine, and 5 mM XTT) and 160 μL of solution B (xanthine oxidase 16 mg/mL) in a flat-bottom 96-well plate and was monitored for absorbance at 490 nm for 30 min. All samples were analyzed in technical triplicate using slope function in Microsoft Excel.

[2] = system: SOD1 variants; assay: as above; format: biochemical, human
Description: as §1, §2

[3] = biological target: SOD1 (Homo sapiens, UniProt P00441); format: binding
Description: A computational search was performed in PubChem to identify all compounds containing a cyclic disulfide motif. […] Of these, 69 compounds cross-linked SOD1 with a wide array of reaction rates. Only 2 compounds could cross-link 100% of SOD1 during the assay, including one 5-membered cyclic disulfide (4-Amino-1,2-Dithiolane-4-Carboxylic Acid) and one 6-membered cyclic thiosulfinate (1,2-dithiane 1-oxide).

[4] = system: fALS SOD1 variants; assay: Size exclusion chromatography (SEC) under native conditions; design: species or system human
Description: We have analyzed samples with and without cross-linker via SEC with high performance liquid chromatography (SEC-HPLC) to assess the SOD1 protein composition in its native state. […] For inducing aggregation, all samples (final conc. 1 μm) were incubated at 37°C for 1 h prior the SEC analysis. […] An isocratic mobile phase consisting of 100 mM sodium phosphate, 200 mM sodium chloride (pH 7.4) was used for 6 min to analyze each sample at wavelength of 280 nm. Waters BEH 200 standard was injected at the beginning, middle, and at the end to confirm the retention time was not shifting throughout the entire experiment.

[5] = system: alpha 1-acid glycoprotein; format: in vitro ADME
[6] = biological target: T2, EGFP-labeled SOD1 (wild-type, fALS variants, Cys111Ser, F50E/G51E) (Homo sapiens, UniProt P00441, C112S); assay: Immunoblotting for SOD1-EGFP cross-linking in NSC-34 cells; format: cell-based, mouse NSC-34 cells; conditions: 20 μm S-XL6
T2 construct: expressed in transfected cells; host or cells: NSC-34 mouse neuroblastoma/motor neuron hybrid cells
Description: Mouse neuroblastoma/motor neuron hybrid cells (NSC-34) were cultured and maintained as previously described. Briefly, NSC-34 cells were cultured in Dulbecco’s Modified Eagle’s Medium with F12 supplement (DMEM/F12, Invitrogen Australia) containing 10% (v/v) heat-inactivated fetal bovine serum (FBS, Bovogen Biologicals, Australia) and 2 mM L-Glutamine (Invitrogen, Australia). Cells were passaged using 0.25% trypsin, 0.02% EDTA (Invitrogen, Australia). Cells were maintained within humidified incubators at 37°C with 5% CO2.
To transfect NSC-34 cells, they were first plated out to 40% confluency in either 6-well or 12-well tissue culture-treated plates and cultured for 24 h. Following this, TransIT-X2 reagent (Mirus Bio, USA) was used according to the manufacturer’s instructions to transfect NSC-34’s (1 μg DNA per well for 12-well plates, 2.5 μg per well for a 6-well plate). Cells were then incubated for 8 h prior to replating for experiments into other plates or chambers.
Transfected NSC-34 cells were plated out into 12-well plates and left overnight. […] Cells were then harvested via aspiration and pelleted (300 × g). Lysis and immunoblots were carried out as previously described. Briefly, cell pellets were lysed in ice-cold lysis buffer containing protease inhibitors (Thermo Fisher, USA) and N-ethylmaleimide (NEM) at a final concentration of 1 mg/mL. Protein concentration was measured by DC assay (BioRad, Australia) and samples were denatured in SDS-sample buffer containing 40 mM NEM at 90°C for 5 min. Lysates were loaded into 26-lane stain-free gels (BioRad, Australia) and electrophoresed. Proteins were transferred to 0.2 μm PVDF membranes for 1 h at 4°C. Membranes were blocked in 5% skim milk in TBST for 1 h prior to addition to primary antibody which as a rabbit anti-GFP antibody (ab290, 1:5,000, Abcam USA) and incubated overnight at 4°C. Membranes were washed 3× and then incubated for 1 h at room temperature in secondary antibody (goat anti-rabbit HRP conjugate at 1:5,000 (catalog no.: P0448; Dako). Membranes were then washed 3× prior to developing with SuperSignal West Pico Plus substrate (Thermo Fisher Scientific).

[7] = Relative cell viability of transfected NSC-34 cells; format: cell-based, mouse; conditions: mouse, 48 h, replicates
Description: (§3) Transfected NSC-34 cells were plated out into 96-well plates and left overnight. […] Cells were then fixed using 4% (w/v) paraformaldehyde in 1×PBS for 20 min. Plates for imaging were then processed as previously described with some changes. Cells were imaged using a DMi8 epifluorescent microscope (Leica, Germany) fitted with a Mercury Arc Lamp, a 10× 0.25NA (CAT NO) air objective and an automated stage. A software-based autofocus strategy was utilized to focus on the GFP signal within cells, with a subsequent image being taken in the DAPI channel to view Hoescht-stained nuclei. Relative focus correction was applied between channels to offset emission wavelength effects to the focal plane. Following image acquisition, images were corrected for illumination variation via a background method and processed using a combination of FIJI [66], StarDist, CellProfiler, and CellProfiler Analyst as previously described.
(§4) Image set data taken from the previous inclusion formation assay were used to examine both relative cell viability and relative levels of SOD1-EGFP. To determine relative viability, we extracted the total number of transfected cells in each treatment group and normalized the values to the untreated group to determine the relative number of cells at assay endpoint.

[8] = system: NSC-34 cells expressing EGFP-WT-SOD1; assay: as above; format: cell-based, mouse; conditions: for Viability %: WT, 48 h, replicates
Description: as §3, §4

[9] = Maximum solubility; format: physicochemical; conditions: pH 7.4, aqueous buffer

T1 sequence (P00441 2-154 H47R): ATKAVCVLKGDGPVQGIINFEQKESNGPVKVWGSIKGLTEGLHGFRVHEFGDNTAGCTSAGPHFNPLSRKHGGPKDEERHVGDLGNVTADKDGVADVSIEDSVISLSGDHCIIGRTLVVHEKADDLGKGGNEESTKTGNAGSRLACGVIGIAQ
SOD1, sequence (P00441 2-154 limits assumed): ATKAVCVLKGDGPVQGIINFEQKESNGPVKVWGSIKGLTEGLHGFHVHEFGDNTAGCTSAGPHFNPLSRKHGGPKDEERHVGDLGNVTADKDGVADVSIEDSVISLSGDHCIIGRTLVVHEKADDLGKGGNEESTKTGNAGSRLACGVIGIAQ
T2 sequence (P00441 2-154 C112S): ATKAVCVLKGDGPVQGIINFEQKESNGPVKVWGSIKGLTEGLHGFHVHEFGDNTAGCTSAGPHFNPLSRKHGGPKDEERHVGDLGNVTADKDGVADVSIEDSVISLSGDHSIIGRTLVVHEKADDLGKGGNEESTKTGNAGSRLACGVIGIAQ

[O-][S+]1CCCCS1 (centres unmarked) [S-XL6, 1,2-dithiane-1-oxide]
enzymatic activity of SOD1^H46R after cross-linking [1]: No change in activity; also recorded: did not affect | Enzymatic activity ([2]; cross-linked fALS SOD1 variants, summary table): Activity of cross-linked quaternary structures of fALS SOD1 variants are more comparable to uncross-linked wild-type SOD1 | enzymatic activity of SOD1^A4V, SOD1^G93A and SOD1^G85R after cross-linking ([2]; plate-based and gel-based assays): levels comparable to that of wild-type SOD1; also recorded: increased to that of wild-type SOD1 | SOD1 cross-linked during the assay [3]: 100% | monomeric population of fALS variants after S-XL6 treatment [4]: decreased | large (>1,000 kDa) aggregates after S-XL6 treatment ([4]; all fALS variants tested): diminished | binding to purified protein [5]: not bound | cross-linking of the Cys111Ser variant [6]: lack of cross-linking | viability at 48 h, 5 µM ([7]; NSC-34 cells expressing EGFP-G93A, G93A, 5 uM): 96% | viability at 48 h, 10 µM ([7]; NSC-34 cells expressing EGFP-G93A, G93A, 10 uM): 97.2% | viability at 48 h, 20 µM ([7]; NSC-34 cells expressing EGFP-G93A, G93A): 83% | viability at 48 h, 20 µM ([7]; NSC-34 cells expressing EGFP-WT-SOD1, WT): 109% | viability of cells expressing EGFP-labeled wild-type SOD1 [8]: did not affect the viability | Viability % ([8]; 5 uM): 118.019% and 98.8542% and 94.2887% and 103.364% and 96.0765% | Viability % ([8]; 10 uM): 120.286% and 102.188% and 99.0654% and 102.243% and 98.2897% | Viability % ([8]; 20 uM): 91.25% and 91.5888% and 93.8838% and 89.0342% | solubility [9]: 360 mM (≈ 49 mg/mL)
